# Where two headings read alike, the source gives them in different places.
# Experiments:
# V. fischeri = assay: Ecotoxicity assay (Microtox); type: cell-based, Vibrio fischeri; settings: initial media 10 µg/mL or decolorized post-culture fluids
# Protocol: The Microtox® (Model 500 Analyzer, London, UK) toxicity assay was used to evaluate the inhibition of luminescence of V. fischeri marine bacteria for untreated medium supplemented with DNR and DOX (10 µg/mL) and post-culture liquids of B. adusta CCBAS 930 according to the manufacturer’s protocol.
# BJ fibroblasts [1] = assay: Calcein AM staining; type: cell-based, human; settings: BJ cells; 24 and 48 h; parent vs Control 1, metabolite vs parent
# Protocol: The human skin fibroblasts cell line BJ (ATCC CRL-2522) was obtained from American Type Culture Collection (ATCC, distributors: LGC Standards, Łomianki, Poland). BJ cells were maintained in MEM medium without phenol red supplemented with 10% fetal bovine serum (FBS). Cells were maintained at 37 °C in a humidified atmosphere with 5% CO2. Cells were seeded in 96-well culture plates (Costar, St. Louis, MO, USA) at a density of 5 × 10^3 per well and initially cultured before the experiment for 24 h.
# B. adusta CCBAS 930 = assay: Free radical (SOR) content in B. adusta CCBAS 930 cultures (NBT); set-up: species or system Bjerkandera adusta
# Protocol: The content of PhC was determined spectrophotometrically at A740nm according to Singleton and Rossi (1965) with a slight modification. SOR levels were estimated based on the detection of superoxide-induced formazan formation from nitrotetrazolium blue (NBT) (A560nm). Untreated medium with DNR or DOX at a concentration of 10 µg/mL was used as control.
# [2] = test system: caspase-3 activity in BJ fibroblasts; assay: Caspase-3 activity; type: cell-based, human; settings: BJ cells; 24 h; medium with initial solutions
# Protocol: The human skin fibroblasts cell line BJ (ATCC CRL-2522) was obtained from American Type Culture Collection (ATCC, distributors: LGC Standards, Łomianki, Poland). BJ cells were maintained in MEM medium without phenol red supplemented with 10% fetal bovine serum (FBS). Cells were maintained at 37 °C in a humidified atmosphere with 5% CO2. Cells were seeded in 96-well culture plates (Costar, St. Louis, MO, USA) at a density of 5 × 10^3 per well and initially cultured before the experiment for 24 h. […] Caspase-3 activity was assessed according to previous described method Nicholson et al. After 24 or 48 h of treatment with studied media culture plates were frozen in −80 °C and kept until assay. […] The lysates were incubated with substrate Ac-DEVD-pNA for caspase-3 at 37 °C. Cells treated with 1 μM staurosporine were used as a positive control (results not shown). After 30 min, absorbance of the lysates at 405 nm was measured using a microplate reader (FilterMax F5 Multi-Mode microplate reader). The amount of colorimetric product was continuously monitored for 120 min. The data were analyzed using Multi-Mode Analysis software (Molecular Devices, Corp., Sunnyvale, CA, USA).
# bacteria = assay: Genotoxicity assay (SOS ChromoTest); settings: before treatment
# BJ fibroblasts [3] = assay: ROS production (H2DCFDA); type: cell-based, human; settings: BJ cells
# Protocol: The human skin fibroblasts cell line BJ (ATCC CRL-2522) was obtained from American Type Culture Collection (ATCC, distributors: LGC Standards, Łomianki, Poland). BJ cells were maintained in MEM medium without phenol red supplemented with 10% fetal bovine serum (FBS). Cells were maintained at 37 °C in a humidified atmosphere with 5% CO2. Cells were seeded in 96-well culture plates (Costar, St. Louis, MO, USA) at a density of 5 × 10^3 per well and initially cultured before the experiment for 24 h. […] The ROS measurement was performed according to a previously described method. […] The cells were incubated in H2DCFDA in serum-free and phenol red-free medium for 45 min before conditioned medium treatment. After 24 and 48 h of incubation of the cells with increasing concentrations of compounds (5% CO2 at 37 °C), the culture medium was replaced with fresh medium to remove extracellular residual DCF and studied compounds to reduce the fluorescence background. Cells treated with 0.3% hydrogen peroxide (H2O2) were used as a positive control (result not shown).
# BJ fibroblasts [4] = assay: Resazurin reduction assay; type: cell-based, human; settings: BJ cells, medium with initial solution
# Protocol: The human skin fibroblasts cell line BJ (ATCC CRL-2522) was obtained from American Type Culture Collection (ATCC, distributors: LGC Standards, Łomianki, Poland). BJ cells were maintained in MEM medium without phenol red supplemented with 10% fetal bovine serum (FBS). Cells were maintained at 37 °C in a humidified atmosphere with 5% CO2. Cells were seeded in 96-well culture plates (Costar, St. Louis, MO, USA) at a density of 5 × 10^3 per well and initially cultured before the experiment for 24 h. […] The resazurin reduction cell viability and metabolism assay was performed according to a previously described method. On the day of analysis, a working solution of 60 µM resazurin was prepared in medium containing 1% FBS. […] Fluorescence was measured with an excitation wavelength of 530 nm and emission 590 nm on a FilterMax F5 Multi-Mode microplate reader (Molecular Devices, Corp., Sunnyvale, CA, USA) for 1 and 2 h after dye addition.
# [5] = DPPH radical scavenging assay; type: physicochemical; settings: initial solutions 10 µg/mL
# Protocol: Antioxidant activity was measured using the DPPH^• radical scavenging assay according to Brand-Williams et al. (1995). Each 100 μL of post-culture fluids and initial DNR and DOX (10 μg/mL) solutions were mixed with 100 μL of […] DPPH^• solution in 96% ethanol. Following 30 min incubation at room temperature, sample absorbance was measured […]) using 96% ethanol as a blank sample.
# [6] = set-up: method as in PMID 17867890; settings: SOS Chromotest, cited from earlier work
SMILES,toxicity units (TU) (V. fischeri),cell number (calcein AM staining) (BJ fibroblasts [1]),decrease in the content of free radicals (B. adusta CCBAS 930),caspase-3 activity [2],CIF (corrected induction factor) (bacteria; C 0.15 µg mL^−1),CIF (corrected induction factor) (bacteria; C 0.31 µg mL^−1),CIF (corrected induction factor) (bacteria; C 0.62 µg mL^−1),CIF (corrected induction factor) (bacteria; C 1.25 µg mL^−1),CIF (corrected induction factor) (bacteria; C 2.50 µg mL^−1),CIF (corrected induction factor) (bacteria; C 5 µg mL^−1),CIF (corrected induction factor) (bacteria; C 10 µg mL^−1),ROS production induced compared to Control 1 (BJ fibroblasts [3]; 24 h),ROS production induced compared to Control 1 (BJ fibroblasts [3]; 48 h),decrease in resazurin reduction compared to Control 1 (BJ fibroblasts [4]; 24 h),decrease in resazurin reduction compared to Control 1 (BJ fibroblasts [4]; 48 h),antioxidant activity (DPPH scavenging) [5],concentration exhibiting genotoxic properties ([6]; with metabolic activation),concentration exhibiting genotoxic properties ([6]; without metabolic activation)
"COc1cccc2c1C(=O)c1c(O)c3c(c(O)c1C2=O)C[C@@](O)(C(C)=O)C[C@@H]3O[C@H]1C[C@H](N)[C@H](O)[C@H](C)O1 [DNR, daunomycin]",1.79 ± 0.09,decrease in cell number,90.30%,not affected,2.50,1.60,1.21,1.54,2.80,5.68,13.42,625.72%,372.97%,48.49%,48.40%,did not show any antioxidant activity,,
"COc1cccc2c1C(=O)c1c(O)c3c(c(O)c1C2=O)C[C@@](O)(C(=O)CO)C[C@@H]3O[C@H]1C[C@H](N)[C@H](O)[C@H](C)O1 [DOX, doxorubicin]",1.90 ± 0.13,decrease in cell number,90.70%,not affected,2.88,1.21,1.23,2.53,3.27,3.70,9.58,680.22%,457.34%,50.36%,40.36%,did not show any antioxidant activity,98 ng/mL,74 ng/mL
